Source: patent publication US7799824B2, “Quaternary salt CCR2 antagonists” (OraPharma, Inc., priority 2004, dated 2010)
“And” between values parts separate entries of the source, which are not always exact repeats. Equal entries are not always repeated.

target: T1, CCR2 (Homo sapiens, UniProt P41597); test: MCP-1 Receptor Binding Assay in THP-1 Cells; details: MCP-1 binding to CCR2; test concentration of 25 μM, unless indicated otherwise; read-out: % Inhibition Ligand Binding
T1 sequence (P41597 1-360 isoform P41597-2): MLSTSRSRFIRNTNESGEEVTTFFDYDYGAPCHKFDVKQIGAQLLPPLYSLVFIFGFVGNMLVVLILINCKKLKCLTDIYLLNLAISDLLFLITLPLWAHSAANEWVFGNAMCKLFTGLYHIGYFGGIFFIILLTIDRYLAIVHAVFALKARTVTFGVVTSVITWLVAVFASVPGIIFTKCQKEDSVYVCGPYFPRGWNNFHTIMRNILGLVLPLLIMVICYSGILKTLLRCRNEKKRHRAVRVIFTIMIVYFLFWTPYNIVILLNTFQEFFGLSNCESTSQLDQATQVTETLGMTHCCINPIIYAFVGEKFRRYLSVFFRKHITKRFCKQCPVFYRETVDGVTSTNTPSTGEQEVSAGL
Method: THP-1 cells were obtained from American Type Culture Collection (Manassas, Va., USA). […] The cell density was maintained between 0.5×10^6 cells/mL.
Cells were then harvested onto a filter plate, dried, and 20 μL of Microscint 20 was added to each well. Plates were counted in a TopCount NXT, Microplate Scintillation & Luminescence Counter (Perkin-Elmer Life Sciences, Inc. Boston, Mass.). Blank values (buffer only) were subtracted from all values and drug treated values were compared to vehicle treated values. 1 μM cold MCP-1 was used for nonspecific binding.

Row | SMILES | inhibition at 25 µM [%]
1 | C[N+]1(Cc2ccc(CNC(=O)C=Cc3ccc(Cl)c(Cl)c3)cc2)CCOCC1 [Cpd 58, 4-(4-{[3-(3,4-dichloro-phenyl)-acryloylamino]-methyl}-benzyl)-4-methyl-morpholin-4-ium iodide] | 53
2 | C[N+]1(Cc2ccc(NC(=O)C=Cc3ccc(Cl)c(Cl)c3)cc2)CCOCC1 [Cpd 60, 4-{4-[3-(3,4-dichloro-phenyl)-acryloylamino]-benzyl}-4-methyl-morpholin-4-ium iodide] | 20
3 | C[N+]1(Cc2ccc(CNC(=O)C=Cc3cccc(C(F)(F)F)c3)cc2)CCOCC1 [Cpd 62, 4-methyl-4-(4-{[3-(3-trifluoromethyl-phenyl)-acryloylamino]-methyl}-benzyl)-morpholin-4-ium iodide] | 9
4 | C[N+](C)(Cc1ccc(CNC(=O)C=Cc2cccc(C(F)(F)F)c2)cc1)C1CCOCC1 [Cpd 64, dimethyl-(tetrahydro-pyran-4-yl)-(4-{[3-(3-trifluoromethyl-phenyl)-acryloylamino]-methyl}-benzyl)-ammonium iodide] | 63
5 | C[N+](C)(Cc1cccc(NC(=O)c2cccc(C(F)(F)F)c2)c1)C1CCOCC1 [Cpd 65, dimethyl-(tetrahydro-pyran-4-yl)-[3-(3-trifluoromethyl-benzoylamino)-benzyl]-ammonium iodide] | 61
6 | C[N+](C)(Cc1ccc(NC(=O)c2cccc(Cl)c2Cl)cc1)C1CCCCC1 [Cpd 77, cyclohexyl-[4-(2,3-dichloro-benzoylamino)-benzyl]-dimethyl-ammonium iodide] | 53
7 | C[N+](C)(Cc1ccc(NC(=O)c2cccc3ccccc23)cc1)C1CCOCC1 [Cpd 89, dimethyl-{4-[(naphthalene-1-carbonyl)-amino]-benzyl}-(tetrahydro-pyran-4-yl)-ammonium iodide] | 29
8 | CCC[N+](C)(Cc1ccc(NC(=O)c2ccc3ccccc3c2)cc1)C1CCOCC1 (stereo not drawn) [Cpd 92, methyl-{4-[(naphthalene-2-carbonyl)-amino]-benzyl}-propyl-(tetrahydro-pyran-4-yl)-ammonium iodide] | 54
9 | C[N+](C)(Cc1ccc(CNC(=O)C2=Cc3cc(Br)ccc3OC2)cc1)C1CCOCC1 [Cpd 99, (4-{[(6-bromo-2H-chromene-3-carbonyl)-amino]-methyl}-benzyl)-dimethyl-(tetrahydro-pyran-4-yl)-ammonium iodide] | 34

same assay, conditions: THP-1 cells, 0.5 nM 125I labeled MCP-1, 2 hours at 30° C.; read-out: Mean Ligand Binding IC50 (inhibition of MCP-1 binding to CCR2)

Row | SMILES | IC50
10 | C[N+]1(Cc2ccc(NC(=O)c3ccc(Cl)c(Cl)c3)cc2)CCOCC1 [Cpd 59, 4-[4-(3,4-dichloro-benzoylamino)-benzyl]-4-methyl-morpholin-4-ium iodide] | 10000 nM
11 | C[N+]1(Cc2ccc(NC(=O)C=Cc3cccc(Br)c3)cc2)CCOCC1 [Cpd 61, 4-{4-[3-(3-bromo-phenyl)-acryloylamino]-benzyl}-4-methyl-morpholin-4-ium iodide] | 2700 nM
12 | C=CC[N+](C)(Cc1ccc(NC(=O)C=Cc2cccc(Br)c2)cc1)C1CCSCC1 (stereo not drawn) [Cpd 63, allyl-{4-[3-(3-bromo-phenyl)-acryloylamino]-benzyl}-methyl-(tetrahydro-thiopyran-4-yl)-ammonium iodide] | 3500 nM
13 | Cc1cccc(C=CC(=O)Nc2ccc(C[N+](C)(C)C3CCOCC3)cc2)c1 [Cpd 66, dimethyl-(tetrahydro-pyran-4-yl)-[4-(3-m-tolyl-acryloylamino)-benzyl]-ammonium iodide] | 1700 nM
14 | C[N+](C)(Cc1ccc(NC(=O)C=Cc2cccc(C(F)(F)F)c2)cc1)C1CCOCC1 [Cpd 68, dimethyl-(tetrahydro-pyran-4-yl)-{4-[3-(3-trifluoromethyl-phenyl)-acryloylamino]-benzyl}-ammonium iodide] | 1500 nM
15 | C[N+](C)(Cc1ccc(NC(=O)C=Cc2ccc(Cl)c(Cl)c2)cc1)C1CCCCC1 [Cpd 71, cyclohexyl-{4-[3-(3,4-dichloro-phenyl)-acryloylamino]-benzyl}-dimethyl-ammonium iodide] | 170 nM and 320 nM
16 | C[N+](C)(Cc1ccc(NC(=O)C=Cc2cccc(Br)c2)cc1)C1CCCCC1 [Cpd 72, {4-[3-(3-bromo-phenyl)-acryloylamino]-benzyl}-cyclohexyl-dimethyl-ammonium iodide] | 580 nM
17 | C[N+](C)(Cc1ccc(NC(=O)c2cccc(Br)c2)cc1)C1CCCCC1 [Cpd 73, [4-(3-bromo-benzoylamino)-benzyl]-cyclohexyl-dimethyl-ammonium iodide] | 440 nM
18 | C[N+](C)(Cc1ccc(NC(=O)c2cccc(C(F)(F)F)c2)cc1)C1CCCCC1 [Cpd 74, cyclohexyl-dimethyl-[4-(3-trifluoromethyl-benzoylamino)-benzyl]-ammonium iodide] | 1500 nM
19 | C[N+](C)(Cc1ccc(NC(=O)c2ccc(F)c(Cl)c2)cc1)C1CCCCC1 [Cpd 76, [4-(3-chloro-4-fluoro-benzoylamino)-benzyl]-cyclohexyl-dimethyl-ammonium iodide] | 160 nM
20 | C[N+](C)(Cc1ccc(NC(=O)c2c(Cl)cccc2Cl)cc1)C1CCCCC1 [Cpd 78, cyclohexyl-[4-(2,6-dichloro-benzoylamino)-benzyl]-dimethyl-ammonium iodide] | 13400 nM
21 | COc1ccc(C(=O)Nc2ccc(C[N+](C)(C)C3CCCCC3)cc2)cc1Cl [Cpd 79, [4-(3-chloro-4-methoxy-benzoylamino)-benzyl]-cyclohexyl-dimethyl-ammonium iodide] | 310 nM
22 | Cc1ccc(C(=O)Nc2ccc(C[N+](C)(C)C3CCCCC3)cc2)cc1Cl [Cpd 80, [4-(3-chloro-4-methyl-benzoylamino)-benzyl]-cyclohexyl-dimethyl-ammonium iodide] | 30 nM
23 | C[N+](C)(Cc1ccc(NC(=O)c2cc(Cl)ccc2Cl)cc1)C1CCCCC1 [Cpd 81, cyclohexyl-[4-(2,5-dichloro-benzoylamino)-benzyl]-dimethyl-ammonium iodide] | 3000 nM
24 | C[N+](C)(Cc1cccc(NC(=O)C=Cc2ccc(Cl)c(Cl)c2)c1)C1CCCCC1 [Cpd 83, cyclohexyl-{3-[3-(3,4-dichloro-phenyl)-acryloylamino]-benzyl}-dimethyl-ammonium iodide] | 1200 nM
25 | C[N+](C)(Cc1cccc(NC(=O)C=Cc2ccc(F)cc2)c1)C1CCCCC1 [Cpd 84, cyclohexyl-{3-[3-(4-fluoro-phenyl)-acryloylamino]-benzyl}-dimethyl-ammonium iodide] | 3200 nM
26 | C[N+](C)(Cc1ccc(NC(=O)c2cccc(-c3ccc(C(F)(F)F)cc3)c2)cc1)C1CCOCC1 [Cpd 85, dimethyl-(tetrahydro-pyran-4-yl)-{4-[(4′-trifluoromethyl-biphenyl-3-carbonyl)-amino]-benzyl}-ammonium iodide] | 5200 nM
27 | Cc1ccc(-c2cccc(C(=O)Nc3ccc(C[N+](C)(C)C4CCCCC4)cc3)c2)cc1 [Cpd 86, cyclohexyl-dimethyl-{4-[(4′-methyl-biphenyl-3-carbonyl)-amino]-benzyl}-ammonium iodide] | 6000 nM
28 | C[N+](C)(Cc1ccc(NC(=O)c2ccc(-c3ccccc3)cc2)cc1)C1CCOCC1 [Cpd 88, {4-[(biphenyl-4-carbonyl)-amino]-benzyl}-dimethyl-(tetrahydro-pyran-4-yl)-ammonium iodide] | 870 nM
29 | C[N+](C)(Cc1ccc(NC(=O)c2ccc3ccccc3c2)cc1)C1CCOCC1 [Cpd 90, dimethyl-{4-[(naphthalene-2-carbonyl)-amino]-benzyl}-(tetrahydro-pyran-4-yl)-ammonium iodide] | 220 nM
30 | CC[N+](C)(Cc1ccc(NC(=O)c2ccc3ccccc3c2)cc1)C1CCOCC1 (stereo not drawn) [Cpd 91, ethyl-methyl-{4-[(naphthalene-2-carbonyl)-amino]-benzyl}-(tetrahydro-pyran-4-yl)-ammonium iodide] | 4100 nM
31 | C[N+](C)(Cc1ccc(NC(=O)c2ccc3ccc(Br)cc3c2)cc1)C1CCOCC1 [Cpd 93, {4-[(7-bromo-naphthalene-2-carbonyl)-amino]-benzyl}-dimethyl-(tetrahydro-pyran-4-yl)-ammonium iodide] | 900 nM
32 | C[N+](C)(Cc1ccc(NC(=O)c2ccc3ccc(Br)cc3c2)cc1)C1CCCCC1 [Cpd 94, {4-[(7-bromo-naphthalene-2-carbonyl)-amino]-benzyl}-cyclohexyl-dimethyl-ammonium iodide] | 1300 nM
33 | C[N+](C)(Cc1ccc(NC(=O)C2=Cc3cc(Br)ccc3OC2)cc1)C1CCOCC1 [Cpd 95, {4-[(6-bromo-2H-chromene-3-carbonyl)-amino]-benzyl}-dimethyl-(tetrahydro-pyran-4-yl)-ammonium iodide] | 180 nM
34 | C[N+](C)(Cc1ccc(NC(=O)C2=Cc3cc(Cl)ccc3OC2)cc1)C1CCOCC1 [Cpd 96, {4-[(6-chloro-2H-chromene-3-carbonyl)-amino]-benzyl}-dimethyl-(tetrahydro-pyran-4-yl)-ammonium iodide] | 110 nM
35 | C[N+](C)(Cc1ccc(NC(=O)C2=Cc3cc(Br)ccc3OC2)cc1)C1CCCCC1 [Cpd 97, {4-[(6-bromo-2H-chromene-3-carbonyl)-amino]-benzyl}-cyclohexyl-dimethyl-ammonium iodide] | 450 nM
36 | C[N+](C)(Cc1ccc(NC(=O)C2=Cc3cc(Cl)ccc3OC2)cc1)C1CCCCC1 [Cpd 98, {4-[(6-chloro-2H-chromene-3-carbonyl)-amino]-benzyl}-cyclohexyl-dimethyl-ammonium iodide] | 270 nM
